# Active and inactive are the calls of the source. The calls are words filed in the database; no cut-off is given here.
# Assays:
# Rattus norvegicus [1] = test: Toxicity in Sprague-Dawley rat assessed as tremor at 240 mg/kg, po; assay type: organism-based; set-up: dose 240 mg/kg, route oral; details: in vivo
# Mus musculus [2] = test: Analgesic activity in sc dosed Swiss-Webster mouse assessed as reduction of acetylcholine-induced writhing; assay type: functional
# Rattus norvegicus [3] = test: Narcotic analgesic activity in fasted Sprague-Dawley rat at 240 mg/kg, po measured at 60 mins by D'Amour-Smith tail-flick test relative to control; assay type: functional
# Rattus norvegicus [4] = test: Toxicity in Sprague-Dawley rat assessed as rigidity at 240 mg/kg, po; assay type: organism-based; set-up: dose 240 mg/kg, route oral; details: in vivo
# Mus musculus [5] = test: Analgesic activity in Swiss-Webster mouse assessed as reduction of acetylcholine-induced writhing at 25 mg/kg, sc relative to control; assay type: functional; set-up: scale not given: the % may be the effect or the level left; details: route subcutaneous
# Rattus norvegicus [6] = test: Hypoglycemic activity in glucose loaded Sprague-Dawley rat assessed as reduction of blood glucose level at 89 mg/kg, po relative to control; assay type: functional; set-up: scale not given: the % may be the effect or the level left
# Rattus norvegicus [7] = test: Narcotic analgesic activity in fasted Sprague-Dawley rat at 240 mg/kg, po measured at 15 mins by D'Amour-Smith tail-flick test relative to control; assay type: functional
# Rattus norvegicus [8] = organism: Rattus norvegicus; test: Narcotic analgesic activity in Sprague-Dawley rat at 15 mins by D'Amour-Smith tail-flick test in presence of microsomal enzyme inhibitor SKF 525-A; assay type: functional, organism-based
# Rattus norvegicus [9] = test: Hypoglycemic activity in Sprague-Dawley rat assessed as reduction of blood glucose level at 88 mg/kg, po by glucagon-impaired glucose disposal test in presence of opioid antagonist nalorphine; assay type: functional, organism-based; set-up: dose 88 mg/kg
# Rattus norvegicus [10] = test: Narcotic analgesic activity in fasted Sprague-Dawley rat at 120 mg/kg,sc measured at 30 mins by D'Amour-Smith tail-flick test in presence of opioid antagonist nalorphine; assay type: functional, organism-based; set-up: dose 120 mg/kg
# Rattus norvegicus [11] = test: Hypoglycemic activity in Sprague-Dawley rat assessed as reduction of blood glucose level at 88 mg/kg, po by glucagon-impaired glucose disposal test in presence of microsomal enzyme inhibitor SKF 525-A; assay type: functional, organism-based; set-up: dose 88 mg/kg
# Rattus norvegicus [12] = test: Hypoglycemic activity in glucose loaded Sprague-Dawley rat assessed as reduction of blood glucose level at 64 mg/kg, po relative to control; assay type: functional; set-up: scale not given: the % may be the effect or the level left
# Rattus norvegicus [13] = test: Toxicity in Sprague-Dawley rat assessed as convulsion at 240 mg/kg, po; assay type: organism-based; set-up: dose 240 mg/kg, route oral; details: in vivo
# Mus musculus [14] = test: Analgesic activity in Swiss-Webster mouse assessed as reduction of acetylcholine-induced writhing at 50 mg/kg, po relative to control; assay type: functional; set-up: scale not given: the % may be the effect or the level left
# Rattus norvegicus [15] = test: Hypoglycemic activity in glucose/glycogen loaded Sprague-Dawley rat assessed as reduction of blood glucose level at 87 mg/kg, po; assay type: functional, organism-based; set-up: dose 87 mg/kg
# Rattus norvegicus [16] = test: Hypoglycemic activity in Sprague-Dawley rat assessed as reduction of blood glucose level at 100 mg/kg, po by glucagon-impaired glucose disposal test relative to control; assay type: functional; set-up: scale not given: the % may be the effect or the level left
# Rattus norvegicus [17] = test: Hypoglycemic activity in fasted Sprague-Dawley rat assessed as reduction of blood glucose level at 100 mg/kg, po relative to control; assay type: functional; set-up: scale not given: the % may be the effect or the level left
# Mus musculus [18] = test: Analgesic activity in Swiss-Webster mouse assessed as reduction of acetylcholine-induced writhing at 75 mg/kg, sc relative to control; assay type: functional; set-up: scale not given: the % may be the effect or the level left; details: route subcutaneous
# Rattus norvegicus [19] = test: Hypoglycemic activity in Sprague-Dawley rat assessed as reduction of blood glucose level at 89 mg/kg, po by glucagon-impaired glucose disposal test relative to control; assay type: functional; set-up: scale not given: the % may be the effect or the level left
# Rattus norvegicus [20] = test: Hypoglycemic activity in Sprague-Dawley rat assessed as reduction of blood glucose level at 88 mg/kg, po by glucagon-impaired glucose disposal test relative to control; assay type: functional; set-up: scale not given: the % may be the effect or the level left
# Rattus norvegicus [21] = test: Narcotic analgesic activity in fed Sprague-Dawley rat at 120 mg/kg, sc measured at 30 mins by D'Amour-Smith tail-flick test; assay type: functional; details: route subcutaneous
# Rattus norvegicus [22] = test: Hypoglycemic activity in sc dosed fasted Sprague-Dawley rat assessed as reduction of blood glucose level measured for 0.5 to 2 hrs; assay type: functional, organism-based
# Rattus norvegicus [23] = test: Hypoglycemic activity in glucose loaded Sprague-Dawley rat assessed as reduction of blood glucose level at 100 mg/kg, po relative to control; assay type: functional; set-up: scale not given: the % may be the effect or the level left
# Rattus norvegicus [24] = test: Narcotic analgesic activity in po dosed fasted Sprague-Dawley rat measured at 15 mins by D'Amour-Smith tail-flick test; assay type: functional; details: 0.25 h
# Mus musculus [25] = test: Analgesic activity in po dosed Swiss-Webster mouse assessed as reduction of acetylcholine-induced writhing; assay type: functional
# Mus musculus [26] = test: Toxicity in Swiss-Webster mouse assessed as stimulation of straub tail at 150 mg/kg, po after 15 to 25 mins; assay type: organism-based; set-up: dose 150 mg/kg, route oral; details: in vivo
# [27] = Mus musculus, Swiss-Webster, sc, read-out: ED50
smiles,measurement,setting,value
COC(=O)[C@H]1C[C@H]2CC[C@H]([C@H]1c1ccccc1)N2C (stereo in doubt; (+)-5),Activity,Rattus norvegicus [1],Toxic
same,ED50,Mus musculus [2],11 mg/kg
same,Activity,Rattus norvegicus [3],59%
COC(=O)[C@H]1C[C@H]2CC[C@H]([C@H]1c1cccs1)N2CC(N)=O.Cl,Activity,Rattus norvegicus [4],Toxic
same,Activity,Mus musculus [5],13%
same,Activity,Rattus norvegicus [6],66%
same,Activity,Rattus norvegicus [7],72%
COC(=O)[C@H]1C[C@H]2CC[C@H]([C@H]1c1cccs1)N2C,Activity,Rattus norvegicus [8],inactive
same,Activity,Rattus norvegicus [9],Active
same,Activity,Rattus norvegicus [10],inactive
same,Activity,Rattus norvegicus [11],inactive
COC(=O)[C@H]1C[C@H]2CC[C@H]([C@H]1c1cccs1)N2CCCO.Cc1ccc(S(=O)(=O)O)cc1,Activity,Rattus norvegicus [1],Toxic
same,Activity,Rattus norvegicus [4],Toxic
same,Activity,Rattus norvegicus [12],27%
same,Activity,Rattus norvegicus [13],Toxic
same,Activity,Mus musculus [14],33%
same,Activity,Rattus norvegicus [7],92%
COC(=O)[C@H]1CCCN(C)[C@@H]1c1cccs1 (relative stereo),Activity,Rattus norvegicus [15],inactive
CC[N+]12Cc3ccsc3[C@H]3[C@@H](C(=O)OC)C[C@H]1CC[C@H]32,Activity,Rattus norvegicus [16],<20%
same,ED50,Mus musculus [2]; [27],3.8 mg/kg
CCOC(CN1[C@@H]2CC[C@@H]1[C@@H](c1cccs1)[C@@H](C(=O)OC)C2)OCC,Activity,Rattus norvegicus [17],47%
same,Activity,Mus musculus [18],27%
same,Activity,Rattus norvegicus [7],87%
CC(C)OC(=O)[C@H]1C[C@H]2CC[C@H]([C@H]1c1ccccc1)N2C.Cl,Activity,Rattus norvegicus [19],28%
COC(=O)[C@H]1C[C@H]2CC[C@@H](N2)[C@H]1c1cccc(O)c1.Cl,Activity,Rattus norvegicus [20],<20%
same,Activity,Rattus norvegicus [7],<20%
same,ED50,Mus musculus [2]; [27],24 mg/kg
same,Activity,Rattus norvegicus [3],<20%
COC(=O)[C@H]1C[C@H]2CC[C@H]([C@H]1c1ccc(O)cc1)N2C,Activity,Rattus norvegicus [16],<20%
COC(=O)[C@H]1C[C@H]2CC[C@H]([C@H]1c1cccs1)N2Cc1ccccc1,Activity,Rattus norvegicus [16],<20%
same,Activity,Rattus norvegicus [21],<20%
same,Activity,Mus musculus [18],33%
CCCCCOC(=O)[C@H]1C[C@H]2CC[C@H]([C@H]1c1cccs1)N2C,Activity,Rattus norvegicus [16],<20%
same,Activity,Mus musculus [5],27%
same,Activity,Rattus norvegicus [7],<20%
same,Activity,Rattus norvegicus [3],<20%
COC(=O)[C@H]1C[C@H]2CC[C@H]([C@H]1c1cccs1)N2CC1CCCO1 (some centres not stated),Activity,Rattus norvegicus [17],39%
same,Activity,Rattus norvegicus [7],72%
COC(=O)[C@H]1C[C@H]2CC[C@H]([C@H]1c1cccs1)N2C (racemic),Activity,Rattus norvegicus [8],inactive
same,Activity,Rattus norvegicus [9],Active
same,Activity,Rattus norvegicus [10],inactive
same,Activity,Rattus norvegicus [11],inactive
same,Activity,Rattus norvegicus [22],inactive
CCOC(=O)N(CN1[C@@H]2CC[C@@H]1[C@@H](c1cccs1)[C@@H](C(=O)OC)C2)NC(=O)OC,Activity,Rattus norvegicus [23],80%
CCCCCN1[C@@H]2CC[C@@H]1[C@@H](c1cccs1)[C@@H](C(=O)OCC)C2,Activity,Mus musculus [18],13%
same,Activity,Rattus norvegicus [23],61%
same,Activity,Rattus norvegicus [3],65%
COC(=O)[C@H]1C[C@H]2CC[C@H]([C@H]1c1cccs1)N2CCc1ccccc1,Activity,Rattus norvegicus [17],29%
same,Activity,Mus musculus [18],27%
same,Activity,Rattus norvegicus [7],96%
COC(=O)[C@H]1C[C@H]2CC[C@H]([C@H]1c1cccc(OC)c1)N2C.Cl,Activity,Rattus norvegicus [19],24%
COC(=O)[C@H]1[C@@H](OC(=O)c2ccccc2)C[C@@H]2CC[C@H]1N2C,Activity,Rattus norvegicus [20],Active
CCOC(=O)[C@H]1C[C@H]2CC[C@H]([C@H]1c1cccs1)N2C,ED50,Rattus norvegicus [24],95 mg/kg
same,Activity,Rattus norvegicus [16],<20%
same,ED50,Mus musculus [25],21 mg/kg
same,Activity,Mus musculus [26],Toxic
CCCCN1[C@@H]2CC[C@@H]1[C@@H](c1cccs1)[C@@H](C(=O)OC)C2,Activity,Rattus norvegicus [17],34%
same,Activity,Mus musculus [5],20%
same,Activity,Rattus norvegicus [7],88%
CCCOC(=O)[C@H]1C[C@H]2CC[C@H]([C@H]1c1cccs1)N2C,Activity,Rattus norvegicus [16],<20%
same,Activity,Mus musculus [5],27%
same,Activity,Rattus norvegicus [3],<20%

# From ChEMBL document CHEMBL3272053, “(exo, exo)-2-Aryltropane-3-carboxylic esters, hypoglycemic agents with accompanying analgesic activity” (J Med Chem, 1978)
